Measurements as given in patent publication US8231887B2, “Pesticidal compositions” (BASF Corporation, priority 2008, dated 2012).
Where “and” joins values, the source holds several entries; their conditions need not be identical. Identical values can stand only once.

Columns and labels:
cockroaches [1] = assay: Topical toxicity test of various compounds and/or PD23 mineral oil, dead at 24 h (Example 12); format: in vivo, Blattella germanica; conditions: for Proportion dead at 24 h: calculated proportion; for increase in mortality when combined with PD23 mineral oil: result in words, compared to the other compounds tested
Protocol: (§1) Toxicity evaluations were performed on 7-14 day old adult male and female German cockroaches (SCJ Strain, S.C. Johnson & Son, Racine, Wis.). Approximately 12 cockroaches were transferred to individual 100×20 mm polystyrene Petri dishes and anesthetized with a 15-25 second exposure to carbon dioxide. The inside edge of each Petri dish was lightly coated with mineral oil plus petroleum jelly in a 1:3 (wt/wt) ratio to minimize escape. Anesthetized cockroaches were positioned with their ventral side up, and a 1 μl drop of the diluted test composition was applied to the area between the meso- and metathoracic legs using a Rainin L-10, 10 μl capacity pipette (Rainin Instrument, LLC, Oakland, Calif.). Five replications of 12 male cockroaches were done for each test composition. Separate tests were done using female cockroaches. Results were evaluated at 24 hours following treatment. Cockroaches were scored as either alive (dorsal side up, active movement when abdomen prodded with dissecting probe) or moribund/dead (dorsal side up and no movement when abdomen prodded or ventral side up and insect unable to right itself).

cockroaches [2] = assay: Topical toxicity test of alcohols and/or PD23 mineral oil, dead at 24 h (Example 10); format: in vivo, Blattella germanica
Protocol: as §1
The compositions comprising alcohol and/or mineral oil are described in Table 13.

[3] = Table 14, composite data of the replicates
[4] = Table 14, composite data, calculated proportion
[5] = Table 17, composite data, listed as nitromethane (75-52-5) (0.80 mg)
[6] = Table 13, per replicate of 10-16 treated cockroaches, mg per insect in the label
[7] = compound alone, 0.25 mg, one replicate group per row

Diisopropyl biphenyl
# dead at 24 h (cockroaches [1]; Table 17, composite data): 0 | Proportion dead at 24 h (cockroaches [1]; Table 17, composite data): 0.000

O=C1CCCO1 [gamma butyrolactone (96-48-0) (0.25 mg), gamma butyrolactone]
# dead at 24 h (cockroaches [1]; Table 17, composite data): 11 | Proportion dead at 24 h (cockroaches [1]; Table 17, composite data): 0.407 | increase in mortality when combined with PD23 mineral oil (cockroaches [1]): greatest increase in mortality

Cc1ccccc1 [Toluene]
# dead at 24 h (cockroaches [1]; compound alone, 0.90 mg): 0 | Proportion dead at 24 hr (cockroaches [1]; compound alone, 0.90 mg): 0.000

CCCCCCCCCCO [Composition 1-decanol, 1-decanol]
# dead at 24 h (cockroaches [2]; [3]): 1 | Proportion dead at 24 h (cockroaches [2]; [4]): 0.027

c1ccncc1 [Pyridine (110-86-1) (0.10 mg), Pyridine]
# dead at 24 h (cockroaches [1]; Table 17, composite data): 1 | Proportion dead at 24 h (cockroaches [1]; Table 17, composite data): 0.032 | increase in mortality when combined with PD23 mineral oil (cockroaches [1]): greatest increase in mortality

C1CCOC1 [Tetrahydrofuran]
# dead at 24 h (cockroaches [1]; compound alone, 0.80 mg): 3 | Proportion dead at 24 hr (cockroaches [1]; compound alone, 0.80 mg): 0.300

CCCCCCCCCCCCCCO [1-tetradecanol]
# dead at 24 h (cockroaches [2]; Table 13, per replicate of 10-16 treated cockroaches, mg per insect in the label, listed as 1-tetradecanol (1.00 mg)): 1 and 2 | Proportion dead at 24 h (cockroaches [2]; Table 13, per replicate, listed as 1-tetradecanol (1.00 mg)): 0.083 and 0.154 | # dead at 24 h (cockroaches [2]; [3]): 4 | Proportion dead at 24 h (cockroaches [2]; [4]): 0.108

CC(Cl)(Cl)Cl [Methyl chloroform (71-55-6) (2.00 mg), Methyl chloroform]
# dead at 24 h (cockroaches [1]; Table 17, composite data): 2 | Proportion dead at 24 h (cockroaches [1]; Table 17, composite data): 0.095

CC(=O)CC(C)C [Methyl isobutyl ketone]
# dead at 24 h (cockroaches [1]; Table 17, composite data): 1 | Proportion dead at 24 h (cockroaches [1]; Table 17, composite data): 0.048

CCOCC [diethyl ether]
# dead at 24 h (cockroaches [1]; compound alone, 2.00 mg): 0 | Proportion dead at 24 hr (cockroaches [1]; compound alone, 2.00 mg): 0.000

CCCCCCCCO [Composition 1-octanol, 1-octanol]
# dead at 24 h (cockroaches [2]; [3]): 2 | Proportion dead at 24 h (cockroaches [2]; [4]): 0.054

CCO [Ethanol]
# dead at 24 h (cockroaches [2]; [3]): 1 | Proportion dead at 24 h (cockroaches [2]; [4]): 0.027

C[N+](=O)[O-] [nitromethane (75-52-5) (0.70 mg), nitromethane]
# dead at 24 h (cockroaches [1]; Table 17, composite data): 0 | Proportion dead at 24 h (cockroaches [1]; [5]): 0.179 | # dead at 24 h (cockroaches [1]; [5]): 5 | increase in mortality when combined with PD23 mineral oil (cockroaches [1]): greatest increase in mortality

CCCCCC [Hexanes (110-54-3) (0.80 mg), Hexanes]
# dead at 24 h (cockroaches [1]; Table 17, composite data): 1 | Proportion dead at 24 h (cockroaches [1]; Table 17, composite data): 0.100

CCCCCCCCCCCCO [Composition 1-dodecanol, 1-dodecanol]
# dead at 24 h (cockroaches [2]; [3]): 3 | Proportion dead at 24 h (cockroaches [2]; [4]): 0.077

CCC(C)=O [2-butanone]
# dead at 24 h (cockroaches [1]; Table 17, composite data): 3 | Proportion dead at 24 h (cockroaches [1]; Table 17, composite data): 0.083

ClC(Cl)Cl [Chloroform-anhydrous (67-66-3) (2.0 mg), Chloroform]
# dead at 24 h (cockroaches [1]; Table 17, composite data): 1 | Proportion dead at 24 h (cockroaches [1]; Table 17, composite data): 0.050

CC(=O)c1ccccc1 [Acetophenone (98-86-2) (0.10 mg), Acetophenone]
# dead at 24 h (cockroaches [1]; Table 17, composite data): 0 | increase in mortality when combined with PD23 mineral oil (cockroaches [1]): greatest increase in mortality

CC(=O)OCC(COC(C)=O)OC(C)=O [Triacetin (102-76-1) (2.0 mg), Triacetin]
# dead at 24 h (cockroaches [1]; Table 17, composite data): 1 | Proportion dead at 24 h (cockroaches [1]; Table 17, composite data): 0.033 | increase in mortality when combined with PD23 mineral oil (cockroaches [1]): greatest increase in mortality

CCCCCCCCCO [Composition 1-nonanol, 1-nonanol]
# dead at 24 h (cockroaches [2]; [3]): 1 | Proportion dead at 24 h (cockroaches [2]; [4]): 0.024

COC(C)(C)C [Methyl t-butyl ether]
# dead at 24 h (cockroaches [1]; Table 17, composite data): 5 | Proportion dead at 24 h (cockroaches [1]; Table 17, composite data): 0.227 | # dead at 24 h (cockroaches [1]; compound alone, 2.00 mg): 2 and 3 | Proportion dead at 24 hr (cockroaches [1]; compound alone, 2.00 mg): 0.300

COCOC [Dimethoxymethane]
pest or weed control at 2 mg (cockroaches [1]; Blattella germanica, topical, 24 h, compound alone, 2.00 mg, read-out: Proportion dead at 24 hr): 0% | Proportion dead at 24 h (cockroaches [1]; Table 17, composite data): 0.000 | # dead at 24 h (cockroaches [1]; compound alone, 2.00 mg): 0 | Proportion dead at 24 hr (cockroaches [1]; compound alone, 2.00 mg): 0.000

CCOCC [diethyl ether (60-29-7) (2.0 mg), diethyl ether]
# dead at 24 h (cockroaches [1]; Table 17, composite data): 0 | Proportion dead at 24 h (cockroaches [1]; Table 17, composite data): 0.000

CCCCOCCO [2-butoxyethanol]
Proportion dead at 24 h (cockroaches [2]; Table 13, per replicate): 0.000 | # dead at 24 h (cockroaches [2]; [6]): 0 | # dead at 24 h (cockroaches [2]; [3]): 0 | Proportion dead at 24 h (cockroaches [2]; [4]): 0.000

CCOCCO [2-ethoxyethanol]
# dead at 24 h (cockroaches [1]; Table 17, composite data): 1 | Proportion dead at 24 h (cockroaches [1]; Table 17, composite data): 0.033 | increase in mortality when combined with PD23 mineral oil (cockroaches [1]): greatest increase in mortality

Cc1ccccc1 [Toluene (108-88-3) (0.90 mg), Toluene]
# dead at 24 h (cockroaches [1]; Table 17, composite data): 0 | Proportion dead at 24 h (cockroaches [1]; Table 17, composite data): 0.000

CC(Cl)(Cl)Cl [Methyl chloroform]
# dead at 24 h (cockroaches [1]; compound alone, 2.00 mg): 1 | Proportion dead at 24 hr (cockroaches [1]; compound alone, 2.00 mg): 0.091 and 0.100

CCCCCCCCCCCO [Composition 1-undecanol, 1-undecanol]
# dead at 24 h (cockroaches [2]; [3]): 4 | Proportion dead at 24 h (cockroaches [2]; [4]): 0.105

CC(C)(C)O [tertiary butyl alcohol]
# dead at 24 h (cockroaches [2]; Table 13, per replicate of 10-16 treated cockroaches, mg per insect in the label, listed as t-butyl alcohol (0.5 mg)): 0 (3×) and 2 | Proportion dead at 24 h (cockroaches [2]; Table 13, per replicate, listed as t-butyl alcohol (0.5 mg)): 0.000 | # dead at 24 h (cockroaches [2]; [3]): 2 | Proportion dead at 24 h (cockroaches [2]; [4]): 0.045

ClCCl [Dichloromethane]
pest or weed control at 1.5 mg (cockroaches [1]; Blattella germanica, topical, 24 h, read-out: Proportion dead at 24 hr): 0% | Proportion dead at 24 h (cockroaches [1]; Table 17, composite data): 0.000 | # dead at 24 h (cockroaches [1]; compound alone, 1.50 mg): 0

OCCOCCO [Di(ethylene) glycol (111-46-6) (0.80 mg), Di(ethylene) glycol]
# dead at 24 h (cockroaches [1]; Table 17, composite data): 6

O=C1CCCO1 [gamma butyrolactone]
# dead at 24 h (cockroaches [1]; [7]): 3 and 5 | Proportion dead at 24 hr (cockroaches [1]; [7]): 0.300 and 0.500

CC(=O)OC(C)C [Isopropyl acetate (108-21-4) (1.0 mg), Isopropyl acetate]
# dead at 24 h (cockroaches [1]; Table 17, composite data): 3 | Proportion dead at 24 h (cockroaches [1]; Table 17, composite data): 0.150

CCCCCCO [Composition 1-hexanol, 1-hexanol]
Proportion dead at 24 h (cockroaches [2]; Table 13, per replicate): 0.083 | # dead at 24 h (cockroaches [2]; [6]): 1 | # dead at 24 h (cockroaches [2]; [3]): 3 | Proportion dead at 24 h (cockroaches [2]; [4]): 0.083

C1CCOC1 [Tetrahydrofuran (109-99-9) (0.80 mg), Tetrahydrofuran]
# dead at 24 h (cockroaches [1]; Table 17, composite data): 3 | Proportion dead at 24 h (cockroaches [1]; Table 17, composite data): 0.300

CN1CCCC1=O [n-methyl pyrrolidone]
Proportion dead at 24 h (cockroaches [1]; Table 17, composite data): 0.100 | Proportion dead at 24 h (cockroaches [1]; Table 17, composite data, listed as n-methyl pyrrolidone (872-50-4) (0.10 mg)): 0.500 | # dead at 24 h (cockroaches [1]; compound alone, 0.05 mg): 1 | # dead at 24 h (cockroaches [1]; compound alone, 0.10 mg): 5

CC(=O)OC(C)C [Isopropyl acetate]
# dead at 24 h (cockroaches [1]; compound alone, 1.00 mg): 1 and 2 | Proportion dead at 24 hr (cockroaches [1]; compound alone, 1.00 mg): 0.200

CC(C)O [Isopropyl alcohol]
Proportion dead at 24 h (cockroaches [2]; Table 13, per replicate): 0.000 | # dead at 24 h (cockroaches [2]; [6]): 0 | # dead at 24 h (cockroaches [2]; [3]): 0 | Proportion dead at 24 h (cockroaches [2]; [4]): 0.000

Hexanes
# dead at 24 h (cockroaches [1]; compound alone, 0.80 mg): 1 | Proportion dead at 24 hr (cockroaches [1]; compound alone, 0.80 mg): 0.100
